Results from US10414789B2, “Compositions comprising cyclic purine dinucleotides having defined stereochemistries and methods for their preparation and use” (ADURO BIOTECH, INC., priority 2012, dated 2019).

Key:
DC2.4 cells = test: IFN-β induction by CDNs in DC2.4 antigen presenting cells (L929-ISRE luciferase reporter readout); assay type: cell-based, mouse; details: for relative level of IFN-β induced: DC2.4 cells incubated with 5, 20 and 100 μM CDN for 30 minutes, culture fluids after 4 hours, RLU in L929-ISRE reporter cells, FIG. 7; for level of IFN-β expression compared to c-di-GMP or c-di-AMP: cyclic dinucleotides not incubated with SVPD, 100 μM, DC2.4 cells, FIG. 8
Protocol: To measure the level of induced IFN-β, cell culture fluids from each sample were collected after 4 hours, and 10 μL was added to 5×10^4 L929-ISRE luciferase reporter cells cultured in RPMI media+10% FBS.

TRAMP-C2 tumor cells = test: Anti-tumor efficacy of CDNs formulated with GVAX in a subcutaneous murine prostate cancer model; assay type: in vivo, C57BL/6 mice; details: by day 52 post tumor implantation; s.c. vaccination on days 4 and 11; FIG. 12
Protocol: The relative in vivo anti-tumor efficacy of the Rp, Rp dithio c-di-AMP and unmodified c-di-AMP derivatives were evaluated in a subcutaneous mouse model of prostate cancer. The derivative molecules were formulated with 1×10^6 irradiated whole TRAMP-C2 murine prostate tumor cells expressing GM-CSF (GVAX). Groups of 5 male C57BL/6 mice were implanted with 1×10^5 TRAMP-C2 tumor cells subcutaneous in the footpad. On days 4 and 11 post tumor implantation, mice were administered vaccinations subcutaneous in the flank of either GVAX alone, or GVAX formulated with RR-CDA or CDA, and compared to HBSS control. Tumor growth was monitored by calipers, and tumor volume was calculated.

[1] = system: snake venom phosphodiesterase (SVPD); details: 1 mg SVPD overnight at 37° C.; then 100 μM on DC2.4 cells; FIG. 8
[2] = system: OVA-specific CD4+ and CD8+ T cell responses; test: OVA-specific CD4+ and CD8+ T cell responses in PBMC by IFN-γ ELISpot after vaccination with OVA/Addavax plus CDN; assay type: in vivo, C57BL/6 mice; details: once s.c., PBMC 10 days post vaccination, FIG. 9
Protocol: To test the enhanced in vivo immunogenicity of Rp, Rp dithio c-di-GMP relative to unmodified c-di-GMP molecules, OVA-specific CD4+ and CD8+ T cell responses were measured in PBMCs at 10 days post vaccination in conjunction with CDN treatment. Vaccines were prepared by combining 10 μg of OVA protein (EndoFit OVA, InVivogen) and Addavax (2% squalene final) with either 25 μg or 5 μg of cyclic dinucleotide, in a total volume of 100 μL. Groups of five female C57BL/6 mice (H-2b) were immunized once subcutaneously (s.c) in the base of the tail with the vaccine preparations, and the OVA-specific CD4+ and CD8+ T cell responses in the peripheral blood mononuclear cell (PBMC) compartment were determined by ELISpot analysis 10 days later. 1×10^5 PBMCs and 1×10^5 splenocyte feeder cells isolated from aged-matched naïve C57BL/6 mice were un-stimulated or stimulated with 1 μM of MHC class II peptide (OVA265-280 TEWTSSNVMEERKIKV) or MHC class I (OVA257-264 SIINFEKL) peptide overnight and IFN-γ spot forming cells were measured, as described previously.

[3] = system: SIV gag-specific CD8+ and CD4+ T cell responses; test: SIV gag-specific CD8 and CD4 T cell responses by IFNγ ELISpot after vaccination with SIV gag protein plus CDN; assay type: in vivo, C57BL/6 mice; details: 1 ug CDN with 10 ug SIV gag protein in 2% squalene-in-water, s.c. twice 20 days apart, spleens six days after second vaccination; FIG. 10
Protocol: To further assess the immunogenicity of Rp, Rp dithio c-di-GMP relative to unmodified c-di-GMP molecules, SIV gag-specific CD8+ and CD4+ T cell responses were measured. Five C57BL/6 mice per group were immunized subcutaneously twice with either 1 ug Rp, Rp dithio c-di-GMP or saline control formulated in 2% squalene-in-water with 10 ug SIV gag protein. Vaccinations were separated by 20 days, and spleens were harvested six days after the second vaccination. Immune responses were measured to SIV gag-specific CD8 (AL11, SIV gag312-322, A) and CD4 (DD13, SIV gag300-312, B) T cell epitopes by IFNγ ELISpot assay. Plates were scanned and spot forming cells (SFC) per well were enumerated using an ImmunoSpot analyzer (CTL).

[4] = system: OVA257-specific CD8 T cell responses; test: OVA-specific CD8 T cell memory and expansion in PBMC by intracellular cytokine staining after prime-boost vaccination; assay type: in vivo, C57BL/6 mice
Protocol: (§1) To establish the enhanced immunogenicity and accompanying protective immunity induced by Rp, Rp dithio c-di-GMP relative to unmodified c-di-GMP, OVA-specific CD8 T cell responses measured in PBMC and protective immunity assessed against lethal bacterial challenge. Vaccines were prepared by combining 10 μg of OVA protein (EndoFit OVA, InVivogen) and Addavax (2% squalene final) with 25 μg of cyclic dinucleotide, in a total volume of 100 μL. Groups of five female C57BL/6 mice (H-2^b) were immunized twice subcutaneously (s.c) in the base of the tail with the vaccine preparations. The interval between the prime and boost immunizations was 36 days. The magnitude of both the memory and expansion phases of the OVA257-specific CD8 T cell responses in PBMC were quantified by intracellular cytokine staining (ICS) analysis at both 27 days post-boost vaccination and at 3 days post challenge with a 2× lethal dose (LD)50 dose (1×10^5 colony forming units; CFU) of OVA-expressing wild-type Listeria monocytogenes (WT Lm-OVA). For ICS analysis, 1×10^5 PBMCs from test mice combined with 1×10^5 splenocyte feeder cells isolated from aged-matched naïve C57BL/6 mice were un-stimulated or stimulated with 1 μM of MHC class I peptide (OVA257-264 SIINFEKL) for 5 hrs. in the presence of Brefeldin A, and IFN-γ production was measured by flow cytometry on a BD FACSVerse.

[5] = system: OVA-expressing wild-type Listeria monocytogenes (WT Lm-OVA); test: Protective immunity against lethal WT Lm-OVA challenge (spleen CFU); assay type: in vivo, C57BL/6 mice; details: i.v. 2×LD50 (1×10^5 CFU) WT Lm-OVA at 27 days post boost; spleens 3 days later; FIG. 11C
Protocol: as §1, with “FACSVerse. […]” for “FACSVerse.”

[6] = system: THP1-Blue human monocytes; test: IFN-β induction in THP1-Blue human monocytes (IRF-inducible SEAP reporter); assay type: cell-based; details: FIG. 15
Protocol: To determine the relative potency of the prodrug form of c-di-GMP to activate the innate immune response, relative levels of IFN-β induced in a human monocyte cell line were assessed. […] Cell culture supernatants from each sample were collected after 4 hours. 10 μL of the cell culture supernatants was added to QUANTI-Blue reagent (Invivogen) and incubated for 15-30 minutes. Absorbance at 655 nm was measured using a Model 680 spectrophotometer (BioRad).

[7] = system: OVA-specific CD8+ T cell responses; test: OVA-specific CD8 T cell responses in splenocytes by intracellular cytokine staining after vaccination with CDN prodrug; assay type: in vivo, C57BL/6 mice; details: 5 μg CDN prodrug with 10 μg OVA and Addavax, s.c. twice, splenocytes 7 days post second vaccination; FIG. 16
Protocol: To assess the ability of the mono-2′-O-myristoyl c-di-GMP (“mono-2′-O-myristoyl CDG”) derivative to induce in vivo immune responses, OVA-specific CD8 T cell responses were measured in splenocytes at 7 days post second vaccination in conjunction with CDN treatment. To test the ability of mono-2′-O-myristoyl c-di-GMP relative to stimulate an OVA-specific immune responses, vaccines were prepared by combining 10 μg of OVA protein (EndoFit OVA, Invivogen) and Addavax (2% squalene final) with either 0 (Control) or 5 μg of mono-2′-O-myristoyl c-di-GMP derivative (“mono-2′-O-myristoyl CDG”), in a total volume of 100 μL. Groups of five female C57BL/6 mice (H-2b) were immunized twice subcutaneously (s.c) in the base of the tail with the vaccine preparations, and the OVA-specific CD8+ T cell responses in the spleens were determined by intracellular cytokine staining 7 days later. 1×10^6 splenocytes were unstimulated or stimulated with 1 μM of MHC class I (OVA257-264 SIINFEKL; SL8) peptide overnight and IFN-γ production was measured by flow cytometer on a BD FACSVerse.

Q: Which “relative level of IFN-β induced” value (DC2.4 cells) does the source give for `Nc1ncnc2c1ncn2C1OC2COP(=O)(S)OC3C(COP(=O)(S)OC2C1O)OC(n1cnc2c(N)ncnc21)C3O` (stereo not drawn) [Rp, Rp dithio c-di-AMP, dithio [Rp,Rp] c-di-AMP] here?
A: induced significantly higher levels of IFN-β than either the c-di-GMP or c-di-AMP unmodified cyclic dinucleotide molecules

Q: And the “level of IFN-β expression compared to c-di-GMP or c-di-AMP” value (DC2.4 cells)?
A: greater

Q: And the “anti-tumor efficacy compared to GVAX alone or GVAX formulated with unmodified c-di-AMP” value (TRAMP-C2 tumor cells)?
A: increased anti-tumor potency

Q: And the “level of IFN-β expression after incubation of the CDN with SVPD versus without SVPD” value (from here on “level … with SVPD versus without SVPD”) [1]?
A: equivalent

Q: What does the source list for `Nc1nc2c(ncn2[C@@H]2O[C@@H]3CO[P@@](=O)(S)O[C@H]4[C@@H](O)[C@H](n5cnc6c(=O)[nH]c(N)nc65)O[C@@H]4CO[P@@](=O)(S)O[C@H]3[C@H]2O)c(=O)[nH]1` [Rp, Rp dithio c-di-GMP, dithio [Rp,Rp] c-di-GMP]?
A: relative level of IFN-β induced (DC2.4 cells): induced significantly higher levels of IFN-β than either the c-di-GMP or c-di-AMP unmodified cyclic dinucleotide molecules; level of IFN-β expression compared to c-di-GMP or c-di-AMP (DC2.4 cells): greater; magnitude of antigen-specific CD8+ T cell responses compared to 5 μg or 25 μg of unmodified c-di-GMP ([2]; 5 μg CDN): greater; CD4+ and CD8+ OVA-specific T cell responses compared to unmodified c-di-GMP ([2]; same amount of CDN adjuvant (25 μg or 5 μg)): of greater magnitude; SIV gag-specific CD8 and CD4 T cell responses compared to saline control [3]: significantly higher; OVA-specific CD8 T cell memory compared to unmodified c-di-GMP adjuvanted vaccines ([4]; 25 μg CDN, s.c. prime and boost 36 days apart, PBMC 27 days post-boost, FIG. 11A): higher magnitude of OVA-specific CD8 T cell memory; expansion of OVA-specific memory CD8 T cells following challenge, compared to unmodified c-di-GMP adjuvanted vaccines ([4]; 3 days post challenge with 2× LD50 WT Lm-OVA, FIG. 11A): expanded to a higher magnitude; magnitude of OVA-specific CD8 T cell memory ([4]; FACS plot, FIG. 11B, 25 μg CDN adjuvanted vaccine): ~30 % of the total CD8 T cell population in PBMC; protection against virulent pathogen challenge (spleen colonies) [5]: complete protection (below the limit of detection, LOD); IFN-β induction compared to Rp, Sp dithio c-di-GMP and unmodified c-di-GMP ([6]; human monocyte cell line): superior induction; level of IFN-β expression after incubation of the CDN with SVPD versus without SVPD [1]: equivalent

Q: `Nc1ncnc2c1ncn2C1OC2COP(=O)(S)OC3C(COP(=O)(S)OC2C1O)OC(n1cnc2c(N)ncnc21)C3O` (stereo not drawn) [Rp, Sp dithio c-di-AMP, dithio [Rp,Sp] c-di-AMP] was tested. Which “relative level of IFN-β induced” value (DC2.4 cells) did it give?
A: lower than the level induced by both the Rp, Rp dithio c-di-GMP and the Rp, Rp dithio c-di-AMP diastereomers as well as the native c-di-GMP and c-di-AMP molecules

Q: Which “relative level of IFN-β induced” value (DC2.4 cells) does the source give for `Nc1nc2c(ncn2[C@@H]2O[C@@H]3CO[P@@](O)(=S)O[C@H]4[C@@H](O)[C@H](n5cnc6c(=O)[nH]c(N)nc65)O[C@@H]4CO[P@](O)(=S)O[C@H]3[C@H]2O)c(=O)[nH]1` [Rp, Sp dithio c-di-GMP, dithio [Rp,Sp] c-di-GMP] here?
A: lower than the level induced by both the Rp, Rp dithio c-di-GMP and the Rp, Rp dithio c-di-AMP diastereomers as well as the native c-di-GMP and c-di-AMP molecules

Q: With `Nc1ncnc2c1ncn2[C@@H]1O[C@@H]2COP(=O)(O)O[C@H]3[C@@H](O)[C@H](n4cnc5c(N)ncnc54)O[C@@H]3COP(=O)(O)O[C@H]2[C@H]1O` [c-di-AMP, reference compound] as the molecule, how does the “level … with SVPD versus without SVPD” value [1] read?
A: significantly lower

Q: How did the “level … with SVPD versus without SVPD” value [1] turn out when `Nc1nc2c(ncn2[C@@H]2O[C@@H]3COP(=O)(O)O[C@H]4[C@@H](O)[C@H](n5cnc6c(=O)[nH]c(N)nc65)O[C@@H]4COP(=O)(O)O[C@H]3[C@H]2O)c(=O)[nH]1` [c-di-GMP, reference compound] was run?
A: significantly lower

Q: `CCCCCCCCCCCCCC(=O)OC1C2OP(=O)(O)OCC3OC(n4cnc5c(=O)[nH]c(N)nc54)C(O)C3OP(=O)(O)OCC2OC1n1cnc2c(=O)[nH]c(N)nc21` (stereo not drawn) [mono-2′-O-myristoyl c-di-GMP] was tested. Which “levels of IFN-β induced compared to unmodified c-di-GMP and background (HBSS)” value ([6]; 100 μM for 30 minutes, supernatants after 4 hours, absorbance at 655 nm) did it give?
A: significantly higher levels of IFN-β

Q: What about the “OVA-specific CD8 T cell immune responses compared to Control vaccines” value [7] of the same molecule?
A: greater immune responses
